Assay results reported in patent US20240270762A1, “PENICILLIN-BINDING PROTEIN INHIBITORS” (priority 2021, published 2024).
pIC50: −log10 of the molar value. ≈ marks a conversion by molar mass, not a printed value.

Tests used:
[1] = test system: E. coli ATCC 25922; assay: microbe, parasite or virus in culture; assay type: cell-based; details: Escherichia coli, ATCC25922, read-out: MIC E. coli 25922
[2] = test system: K. pneumoniae UMM; assay: microbe, parasite or virus in culture; assay type: cell-based; details: Klebsiella pneumoniae, read-out: MIC K. pneumoniae UMM
[3] = test system: N. gonorrhoeae WHO L; assay: Liquid broth MIC in Fastidious broth; details: Neisseria gonorrhoeae, read-out: Minimum Inhibitory Concentration (MIC), N. gonorrhoeae WHO L
[4] = test system: N. gonorrhoeae CDC-0197; assay: Liquid broth MIC in Fastidious broth; details: Neisseria gonorrhoeae, CDC0197, read-out: Minimum Inhibitory Concentration (MIC), N. gonorrhoeae CDC-0197
[5] = test system: N. gonorrhoeae WHO K; assay: Liquid broth MIC in Fastidious broth; details: Neisseria gonorrhoeae, read-out: Minimum Inhibitory Concentration (MIC), N. gonorrhoeae WHO K
[6] = test system: P. aeruginosa ATCC 27853; assay: microbe, parasite or virus in culture; assay type: cell-based; details: Pseudomonas aeruginosa, ATCC27853, read-out: MIC P. aeruginosa ATCC 27853
[7] = test system: N. gonorrhoeae ATCC 49226; assay: Liquid broth MIC in Fastidious broth; details: Neisseria gonorrhoeae, ATCC49226, read-out: Minimum Inhibitory Concentration (MIC), N. gonorrhoeae ATCC 49226
[8] = test system: A. baumannii ATCC 19606; assay: microbe, parasite or virus in culture; assay type: cell-based; details: Acinetobacter baumannii, ATCC19606, read-out: MIC, A. baumannii ATCC 19606
[9] = test system: N. gonorrhoeae FA1090; assay: Liquid broth MIC in Fastidious broth; details: Neisseria gonorrhoeae, FA1090, read-out: Minimum Inhibitory Concentration (MIC), N. gonorrhoeae FA 1090
[10] = test system: E. coli 901C; assay: microbe, parasite or virus in culture; assay type: cell-based; details: Escherichia coli, read-out: MIC E. coli 901C
[11] = test system: K. pneumoniae 848844; assay: microbe, parasite or virus in culture; assay type: cell-based; details: Klebsiella pneumoniae, 848844, read-out: MIC K. pneumoniae 848844
[12] = molecular target: T1, PBP3 from Pseudomonas aeruginosa (PAO1) (Pseudomonas aeruginosa, UniProt G3XD46); assay: Bocillin-FL fluorescence polarization competition binding, P. aeruginosa PBP3; details: Binding affinity to P. aeruginosa PBP3; fluorescence polarization competition binding assay using Bocillin-FL; read-out: P. aeruginosa PBP3 Potency
T1 construct: made in house
T1 sequence (G3XD46 whole entry): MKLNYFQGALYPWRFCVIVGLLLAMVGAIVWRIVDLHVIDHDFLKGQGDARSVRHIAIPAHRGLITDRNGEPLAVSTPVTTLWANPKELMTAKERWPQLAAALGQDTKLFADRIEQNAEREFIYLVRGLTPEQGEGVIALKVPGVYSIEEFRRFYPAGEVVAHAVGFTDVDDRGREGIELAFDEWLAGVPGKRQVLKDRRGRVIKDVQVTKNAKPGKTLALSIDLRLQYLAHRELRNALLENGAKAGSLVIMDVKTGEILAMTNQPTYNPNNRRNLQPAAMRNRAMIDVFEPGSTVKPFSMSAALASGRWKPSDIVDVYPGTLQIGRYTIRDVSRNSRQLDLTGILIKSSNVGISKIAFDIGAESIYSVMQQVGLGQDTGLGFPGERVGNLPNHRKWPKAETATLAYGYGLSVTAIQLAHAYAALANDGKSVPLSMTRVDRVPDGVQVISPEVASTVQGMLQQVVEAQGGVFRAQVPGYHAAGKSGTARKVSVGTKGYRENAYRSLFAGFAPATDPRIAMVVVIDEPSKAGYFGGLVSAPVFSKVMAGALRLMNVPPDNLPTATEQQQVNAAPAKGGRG
Outline: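 Purified PBP was preincubated with inhibitor (E. coli PBP3 1.5 μM, 30 min; P. aeruginosa PBP3 0.75 μM, A. baumannii PBP3 0.2 μM and PBP1a 1 μM, 15 min), then Bocillin-FL (0.1 μM; 0.05 μM for PBP1a) added and FP read up to 60 min. EC50 = 50% loss of bound probe.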

[13] = test system: K. pneumoniae SI-117; assay: microbe, parasite or virus in culture; assay type: cell-based; details: Klebsiella pneumoniae, SI117, read-out: MIC K. pneumoniae SI-117
[14] = test system: P. aeruginosa ATCC 35151; assay: microbe, parasite or virus in culture; assay type: cell-based; details: Pseudomonas aeruginosa, ATCC35151, read-out: MIC P. aeruginosa ATCC 35151
[15] = test system: N. gonorrhoeae WHO Q; assay: Liquid broth MIC in Fastidious broth; details: Neisseria gonorrhoeae, read-out: Minimum Inhibitory Concentration (MIC), N. gonorrhoeae WHO Q
[16] = test system: E. coli AG100A; assay: Broth microdilution MIC in CAMHB; assay type: cell-based; details: Escherichia coli, read-out: MIC E. coli AG100A

| Compound | MIC [1] [µg/mL] | MIC [2] [µg/mL] | MIC [3] [µg/mL] | MIC [4] [µg/mL] | MIC [5] [µg/mL] | MIC [6] [µg/mL] | MIC [7] [µg/mL] | MIC [8] [µg/mL] | MIC [9] [µg/mL] | MIC [10] [µg/mL] | MIC [11] [µg/mL] | pIC50 [12] | MIC [13] [µg/mL] | MIC [14] [µg/mL] | MIC [15] [µg/mL] | MIC [16] [µg/mL] |
| --- | --- | --- | --- | --- | --- | --- | --- | --- | --- | --- | --- | --- | --- | --- | --- | --- |
| O=C(O)c1cccc2c1OB(O)[C@@H](NC(=O)[C@@H](NC(=O)c1ccn[nH]c1=O)c1ccc(P(=O)(O)O)cc1)C2 (single isomer, unassigned) [Example 177] | > 128 | > 128 | 4 to 8 (≈ 7.38 to 14.8 µM) | 1 to 2 (≈ 1.84 to 3.69 µM) | 4 to 8 (≈ 7.38 to 14.8 µM) | > 128 | 1 to 2 (≈ 1.84 to 3.69 µM) | > 128 | < 1 | 2 to 4 (≈ 3.69 to 7.38 µM) | > 128 | > 5.00 | > 128 | 2 to 4 (≈ 3.69 to 7.38 µM) | 4 to 8 (≈ 7.38 to 14.8 µM) | > 128 |
| O=C(O)c1cccc2c1OB(O)[C@@H](NC(=O)[C@H](NC(=O)c1ccn[nH]c1=O)c1ccc(P(=O)(O)O)cc1)C2 (single isomer, unassigned) [Example 178] | > 128 | 32 to 64 (≈ 59 to 118 µM) | 1 to 2 (≈ 1.84 to 3.69 µM) | < 1 | 1 to 2 (≈ 1.84 to 3.69 µM) | 32 to 64 (≈ 59 to 118 µM) | < 1 | 32 to 64 (≈ 59 to 118 µM) | < 1 | < 1 | > 128 | > 5.00 | > 128 | < 1 | 1 to 2 (≈ 1.84 to 3.69 µM) | 32 to 64 (≈ 59 to 118 µM) |
| Cn1cccc(C(=O)N[C@H](C(=O)N[C@H]2Cc3cccc(C(=O)O)c3OB2O)c2ccc(P(=O)(O)O)cc2)c1=O (single isomer, unassigned) [Example 181] | > 128 | > 128 | 16 to 32 (≈ 28.8 to 57.6 µM) | 16 to 32 (≈ 28.8 to 57.6 µM) | 16 to 32 (≈ 28.8 to 57.6 µM) | > 128 | 16 to 32 (≈ 28.8 to 57.6 µM) | > 128 | 1 to 2 (≈ 1.8 to 3.6 µM) | 32 to 64 (≈ 57.6 to 115 µM) | > 128 | 3.60 to 4.30 | > 128 | 8 to 16 (≈ 14.4 to 28.8 µM) | 16 to 32 (≈ 28.8 to 57.6 µM) | > 128 |
| Cn1cccc(C(=O)N[C@@H](C(=O)N[C@H]2Cc3cccc(C(=O)O)c3OB2O)c2ccc(P(=O)(O)O)cc2)c1=O (single isomer, unassigned) [Example 182] | > 128 | > 128 | 16 to 32 (≈ 28.8 to 57.6 µM) | 1 to 2 (≈ 1.8 to 3.6 µM) | 4 to 8 (≈ 7.2 to 14.4 µM) | > 128 | 1 to 2 (≈ 1.8 to 3.6 µM) | > 128 | < 1 | 2 to 4 (≈ 3.6 to 7.2 µM) | > 128 | > 5.00 | > 128 | < 1 | 1 to 2 (≈ 1.8 to 3.6 µM) | 32 to 64 (≈ 57.6 to 115 µM) |
| O=C(O)c1cccc2c1OB(O)[C@@H](NC(=O)[C@@H](NC(=O)c1cccn(C(F)F)c1=O)c1ccc(P(=O)(O)O)cc1)C2 (single isomer, unassigned) [Example 190] | > 128 | > 128 | 16 to 32 (≈ 27.1 to 54.1 µM) | 4 to 8 (≈ 6.77 to 13.5 µM) | 16 to 32 (≈ 27.1 to 54.1 µM) | > 128 | 4 to 8 (≈ 6.77 to 13.5 µM) | > 128 | < 1 | 2 to 4 (≈ 3.38 to 6.77 µM) | > 128 | > 5.00 | > 128 | 2 to 4 (≈ 3.38 to 6.77 µM) | 4 to 8 (≈ 6.77 to 13.5 µM) | > 128 |
| O=C(O)c1cccc2c1OB(O)[C@@H](NC(=O)[C@H](NC(=O)c1cccn(C(F)F)c1=O)c1ccc(P(=O)(O)O)cc1)C2 (single isomer, unassigned) [Example 191] | > 128 | > 128 | 4 to 8 (≈ 6.77 to 13.5 µM) | 1 to 2 (≈ 1.69 to 3.38 µM) | 4 to 8 (≈ 6.77 to 13.5 µM) | > 128 | 1 to 2 (≈ 1.69 to 3.38 µM) | > 128 | < 1 | < 1 | > 128 | > 5.00 | > 128 | < 1 | 1 to 2 (≈ 1.69 to 3.38 µM) | 32 to 64 (≈ 54.1 to 108 µM) |
| O=C(N[C@H](C(=O)N[C@H]1Cc2cccc(C(=O)O)c2OB1O)c1ccc(P(=O)(O)O)cc1)c1ccc(C(F)(F)F)cn1 (single isomer, unassigned) [Example 192] | > 128 | > 128 | 4 to 8 (≈ 6.74 to 13.5 µM) | 1 to 2 (≈ 1.69 to 3.37 µM) | 4 to 8 (≈ 6.74 to 13.5 µM) | > 128 | 1 to 2 (≈ 1.69 to 3.37 µM) | > 128 | < 1 | < 1 | > 128 | > 5.00 | > 128 | 8 to 16 (≈ 13.5 to 27 µM) | 1 to 2 (≈ 1.69 to 3.37 µM) | 32 to 64 (≈ 53.9 to 108 µM) |
| O=C(N[C@@H](C(=O)N[C@H]1Cc2cccc(C(=O)O)c2OB1O)c1ccc(P(=O)(O)O)cc1)c1ccc(C(F)(F)F)cn1 (single isomer, unassigned) [Example 193] | 32 to 64 (≈ 53.9 to 108 µM) | > 128 | 4 to 8 (≈ 6.74 to 13.5 µM) | < 1 | 1 to 2 (≈ 1.69 to 3.37 µM) | > 128 | < 1 | > 128 | < 1 | < 1 | > 128 | > 5.00 | > 128 | 2 to 4 (≈ 3.37 to 6.74 µM) | 1 to 2 (≈ 1.69 to 3.37 µM) | 8 to 16 (≈ 13.5 to 27 µM) |
| O=C(O)c1cccc2c1OB(O)[C@@H](NC(=O)[C@@H](NC(=O)c1cnc3sccn3c1=O)c1ccc(P(=O)(O)O)cc1)C2 (single isomer, unassigned) [Example 194] | > 128 | > 128 | 16 to 32 (≈ 26.7 to 53.5 µM) | 16 to 32 (≈ 26.7 to 53.5 µM) | 16 to 32 (≈ 26.7 to 53.5 µM) | > 128 | 4 to 8 (≈ 6.69 to 13.4 µM) | > 128 | 1 to 2 (≈ 1.67 to 3.34 µM) | 2 to 4 (≈ 3.34 to 6.69 µM) | > 128 | > 5.00 | > 128 | 2 to 4 (≈ 3.34 to 6.69 µM) | 16 to 32 (≈ 26.7 to 53.5 µM) | > 128 |
